One assay deals with Rb protein. As to the kind of experiment: Western blot of Rb, phospho-Rb, p105 and p107 in synchronized SCC-1 cells. It counts as cell-based, human. The procedure: Synchronized cells (˜2×10^6) from each treatment were solubilized in 200 μl RIPA buffer (1×PBS, 10 μM IGEPAL, 1 mg/ml SDS, 5 mg/ml deoxycholic acid), containing protease and phosphatase inhibitors (2 μg/ml aprotinin, 3 mg/ml phenylmethyl sulfonyl fluoride (PMSF), 1 mM sodium orthovanidate, 1 μM okadaic acid). Total protein concentrations were measured using the DC protein assay kit (Bio-Rad Laboratories, Hercules, Calif.). Equal amounts of protein (40 μg) were subjected to 10% SDS-PAGE followed by transfer of proteins onto polyvinylidene difluoride (Millipore, Billerica, Mass.) using standard protocols. The following antibodies were purchased from commercial sources: phospho-Rb (Ser795), phospho-Rb (Ser807/811) (Cell Signaling Technology, Beverly, Mass.); phospho-Rb (Thr821) (Biosource, Camarillo, Calif.); Cdk4, cyclin D1, p15, p16, p18, p19 (Santa Cruz Biotechnology, Santa Cruz, Calif.); total Rb, p21, p27 (BD PharMingen, San Diego, Calif.); β-actin (Clone AC-15, Sigma). The following dilutions of primary antibodies were used to detect respective proteins. 1:200 phospho-Rb (Ser795), 1:200 phospho-Rb (Ser807/811); 1:200 phospho-Rb (Thr821); 1:200 Cdk4, 1:200 cyclin D1, 1:100 p16; 1:200 total Rb, 1:200 p21, 1:100 p27. […]
To determine equal loading of total protein samples, blots were reprobed with monoclonal antibody against β-actin at a dilution of 1:2000. […] Means and SE were determined from 3 or more independent experiments.
To quantify expression levels or kinase activity, the optical density of each band was determined by densitometry and analyzed by QuickOne (Bio-Rad Laboratories). […] To report the changes due to OGF treatment, the fold increase was calculated by dividing the normalized value from the OGF treated samples by the normalized value of control samples at each time point; thus, increases due to OGF have values greater than one, and decreases due to OGF have values less than one.

The subject of a further assay is SCC-1 cells. As to the kind of experiment: siRNA knockdown of OGFr, growth of SCC-1 cells. Format: cell-based, human. The settings on record: 10^-6 M; for depression of growth: 96 h. The procedure:
siRNA knockdown of OGFr. […] For transfection, 5×10^4 cells per well were seeded in 6-well plates containing 1 ml of serum-containing media without antibiotics. In each well, 20 nM OGFr-siRNA or control siRNA solutions in serum-free media were added. Cells were incubated for 4 h at 37° C. prior to the addition of OGF. Cultures were incubated an additional 20 h, and then 1 ml fresh complete media either lacking or containing OGF was added. […] Two independent experiments were conducted. The control siRNAs were purchased from Ambion.

The next assay has as its system SCC-4 cells. As to the kind of experiment: Growth curves of SCC-4 cells transfected with p16 siRNA or negative control siRNA. Format: cell-based, human. The method, then: The SCC-1 (UM-SCC-1) cell line was obtained from the University of Michigan Cancer Research Laboratory, and CAL-27 and SCC-4 cells were obtained from the American Type Culture Collection (Manassas, Va.). SCC-1 and CAL-27 cells were cultured in DMEM media, whereas SCC-4 cells were grown in 1:1 Hams F-12 DMEM media. All media was supplemented with 10% fetal bovine serum (HyClone, Logan, Utah), 1.2% sodium bicarbonate, and 5000 units/ml penicillin, 5 μg/ml streptomycin and 10 μg/ml neomycin. OGF was purchased from Sigma-Aldrich (St. Louis, Mo.), dissolved in sterile water, and used at a final concentration of 10^−6 M.
The p16-targeted siRNAs (antisense:5′ […]-3′; sense (SEQ ID NO:5): 5′ […]-3′(SEQ ID NO:6) were obtained as ready-annealed, purified duplex probes (Invitrogen, Carlsbad, Calif.). For transfection, 2×10^5 cells per well were seeded in 6-well plates containing 1 ml of serum-free media without antibiotics. In each well, 20 nM of p16-siRNA or control siRNA solutions in serum-free media were added. Cells were incubated for 4 h at 37° C. prior to the addition of OGF. Cultures were incubated for additional 20 h, and then 1 ml fresh complete media either lacking or containing OGF was added. At the indicated time points, cells were collected for growth curves or Western blotting. Three or more independent experiments were conducted. The control siRNAs were purchased from Ambion.

Assay [1] concerns BxPC-3 human pancreatic cancer cells. As to the kind of experiment: Growth curves of BxPC-3 cells. Format: cell-based. Particulars: 10^-6 M OGF. The method, then: Human pancreatic cancer cell lines BxPC-3, PANC-1, and Capan-2 were obtained from the American Type Culture Collection (Manassas, Va.), and cultured in RPMI, Dulbecco's Modified Medium, or McCoy's 5A medium, respectively. All media were supplemented with 10% fetal bovine serum, 1.2% sodium bicarbonate, and 0.25% antibiotics (5000 units/ml penicillin, 5 μg/ml streptomycin and 10 μg/ml neomycin). OGF was purchased from Sigma-Aldrich (St. Louis, Mo.), dissolved in sterile water, and used at a final concentration of 10^−6 M.
For growth curves, cells were seeded in 6-well plates at an initial density of 2×10^5 cells/well. Fresh media and OGF were added 24 hours after initial seeding, and media and OGF were replaced daily. At appropriate times, the cells were washed with PBS, trypsinized, and viable cell numbers were counted by trypan blue exclusion using a hemacytometer.

For a further assay, the system named is p16/Cdk4 complex. As to the kind of experiment: Cdk4 immunoprecipitation, p16/Cdk4 and cyclin D1/Cdk4 complexes in SCC-1 cells. Format: cell-based, human. The method, then: Cell extracts were subjected to immunoprecipitation using antibodies against Cdk4 and protein A beads (Santa Cruz). Immunoprecipitates were separated on a 15% SDS-PAGE gel, and membrane blots probed with p16 antibodies (1:200), and developed using a chemiluminescence Western blotting detection system. Blots were re-probed with Cdk4 antibody (1:200). Five independent experiments were performed.

Entries after “also recorded” stand apart in the source; their conditions may differ.

As for [Met^5]-enkephalin [OGF], the “phospho-Rb (pT821) levels” value in the assay on Rb protein (OGF treatment, Western blot) was “did not alter”. The “Expression of total Rb protein” value in the assay on Rb protein (after 14 h of OGF treatment) is given as “not decreased”. Besides, in the assay on Rb protein (after exposure to OGF), the “Total levels of p105 and p107” value is given as “no changes”. The “effect on growth of OGFr-siRNA cultures” value in the assay with SCC-1 cells (SCC-1 cells subjected to OGFr-siRNA) is listed as “no further effects”. Also, the depression of growth was 46% with SCC-1 cells (control siRNA-treated SCC-1 cells) and 29% with SCC-1 cells (wt SCC-1 cells). Further, the decrease of growth in the assay with SCC-4 cells (SCC-4 cells transfected with negative control siRNAs, 96 h) was determined as 43%. The “effect on growth of cells lacking p16 expression” value with SCC-4 cells (SCC-4 cells transfected with p16 siRNAs) is “no effect”. For the same substance, the results for the “cell numbers compared to control cultures” value in assay [1] (48 hours) and in assay [1] (72 hours) were 66% and 55%, respectively. In assay [1] (linear regression of growth data), this substance had a mean doubling time of 51 h. For the same substance, in the assay with p16/Cdk4 complex (3, 6, 9, and 12 h, significant (p<0.05) at 9 and 12 h), the “level of the p16/Cdk4 complex” value is on record as “elevated at all time points; also recorded: increased at all time points”. For the same substance, the “level of the cyclin D1/Cdk4 complex” value with p16/Cdk4 complex (after treatment with OGF) is “no change”.

The record behind these values is patent publication US7807368B2, “Cyclin-dependent kinase inhibitors as targets for opiod growth factor treatment” (priority 2006, dated 2010).
